Test results reported in PubChem BioAssay (NCI).
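Results reflect a 48-hour exposure of cells in 96-well plates to compound at five concentrations. GI50 = concentration required for 50% inhibition of growth. TGI denotes the concentration required for complete inhibition of growth.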

Legend:
Experiment in all cases: growth of human tumour cells (NCI), 48 h
MCF7 breast = test system: MCF7 breast
MOLT-4 leukemia = test system: MOLT-4 leukemia
HT29 colon = test system: HT29 colon
EKVX NSCLC = test system: EKVX NSCLC
NCI-H226 lung = test system: NCI-H226 lung
BT-549 breast = test system: BT-549 breast
HCC-2998 colon = test system: HCC-2998 colon
SK-MEL-28 melanoma = test system: SK-MEL-28 melanoma
MDA-MB-435 = test system: MDA-MB-435
NCI/ADR-RES ovarian = test system: NCI/ADR-RES ovarian
T-47D breast = test system: T-47D breast
HCT-116 colon = test system: HCT-116 colon
MDA-MB-231 breast = test system: MDA-MB-231 breast
SR leukemia = test system: SR leukemia
A549 NSCLC = test system: A549 NSCLC
UO-31 renal = test system: UO-31 renal
NCI-H522 lung = test system: NCI-H522 lung
RPMI-8226 leukemia = test system: RPMI-8226 leukemia
UACC-62 melanoma = test system: UACC-62 melanoma
SW-620 colon = test system: SW-620 colon
HL-60(TB) leukemia = test system: HL-60(TB) leukemia
A498 renal = test system: A498 renal
K-562 leukemia = test system: K-562 leukemia
786-0 renal = test system: 786-0 renal
OVCAR-3 ovarian = test system: OVCAR-3 ovarian
CAKI-1 renal = test system: CAKI-1 renal
SK-OV-3 ovarian = test system: SK-OV-3 ovarian
RXF 393 renal = test system: RXF 393 renal
HOP-62 NSCLC = test system: HOP-62 NSCLC
LOX IMVI melanoma = test system: LOX IMVI melanoma
OVCAR-5 ovarian = test system: OVCAR-5 ovarian
NCI-H23 lung = test system: NCI-H23 lung
SN12C renal = test system: SN12C renal
SF-268 CNS = test system: SF-268 CNS
SNB-75 CNS = test system: SNB-75 CNS
DU-145 prostate = test system: DU-145 prostate
TK-10 renal = test system: TK-10 renal
IGROV1 ovarian = test system: IGROV1 ovarian
MALME-3M melanoma = test system: MALME-3M melanoma
OVCAR-8 ovarian = test system: OVCAR-8 ovarian
OVCAR-4 ovarian = test system: OVCAR-4 ovarian
UACC-257 melanoma = test system: UACC-257 melanoma
SF-295 CNS = test system: SF-295 CNS
KM12 colon = test system: KM12 colon
SK-MEL-5 melanoma = test system: SK-MEL-5 melanoma
HOP-92 NSCLC = test system: HOP-92 NSCLC
ACHN renal = test system: ACHN renal
COLO 205 colon = test system: COLO 205 colon
HCT-15 colon = test system: HCT-15 colon
M14 melanoma = test system: M14 melanoma
SNB-19 CNS = test system: SNB-19 CNS
PC-3 prostate = test system: PC-3 prostate
SK-MEL-2 melanoma = test system: SK-MEL-2 melanoma
NCI-H460 lung = test system: NCI-H460 lung
SF-539 CNS = test system: SF-539 CNS
U251 CNS = test system: U251 CNS
HS 578T breast = test system: HS 578T breast
CCRF-CEM leukemia = test system: CCRF-CEM leukemia
MDA-N = test system: MDA-N

## C=C(C)[C@@H]1CC[C@]2(CN)CC[C@]3(C)[C@H](CC[C@@H]4[C@@]5(C)CCC(N)[C@@](C)(CO)[C@@H]5CC[C@]43C)[C@@H]12 (some centres not stated)
MCF7 breast
  GI50: 1.53 µM
  TGI: 3.2 µM
MOLT-4 leukemia
  GI50: 1.7 µM
  TGI: 3.58 µM
HT29 colon
  GI50: 1.59 µM
  TGI: 3.12 µM
EKVX NSCLC
  GI50: 1.55 µM
  TGI: 3.05 µM
NCI-H226 lung
  GI50: 1.94 µM
  TGI: 4.09 µM
BT-549 breast
  GI50: 1.66 µM
  TGI: 3.2 µM
HCC-2998 colon
  GI50: 1.77 µM
  TGI: 3.24 µM
SK-MEL-28 melanoma
  GI50: 1.9 µM
  TGI: 3.37 µM
MDA-MB-435
  GI50: 1.85 µM
  TGI: 3.46 µM
NCI/ADR-RES ovarian
  GI50: 2.6 µM
  TGI: 6.59 µM
T-47D breast
  GI50: 1.93 µM
  TGI: 3.84 µM
HCT-116 colon
  GI50: 1.61 µM
  TGI: 3.05 µM
MDA-MB-231 breast
  GI50: 1.84 µM
  TGI: 3.32 µM
SR leukemia
  GI50: 1.53 µM
  TGI: 3.63 µM
A549 NSCLC
  GI50: 1.73 µM
  TGI: 3.27 µM
UO-31 renal
  GI50: 1.6 µM
  TGI: 2.96 µM
NCI-H522 lung
  GI50: 1.86 µM
  TGI: 3.5 µM
RPMI-8226 leukemia
  GI50: 1.77 µM
  TGI: 3.94 µM
UACC-62 melanoma
  GI50: 1.85 µM
  TGI: 3.33 µM
SW-620 colon
  GI50: 1.8 µM
  TGI: 3.62 µM
HL-60(TB) leukemia
  GI50: 1.29 µM
  TGI: 2.97 µM
A498 renal
  GI50: 1.44 µM
  TGI: 2.79 µM
K-562 leukemia
  GI50: 0.325 µM
  TGI: 1.06 µM
786-0 renal
  GI50: 1.64 µM
  TGI: 3.11 µM
OVCAR-3 ovarian
  GI50: 1.96 µM
  TGI: 3.57 µM
CAKI-1 renal
  GI50: 1.76 µM
  TGI: 3.2 µM
SK-OV-3 ovarian
  GI50: 1.8 µM
  TGI: 3.2 µM
RXF 393 renal
  GI50: 1.28 µM
  TGI: 2.59 µM
HOP-62 NSCLC
  GI50: 1.78 µM
  TGI: 3.24 µM
LOX IMVI melanoma
  GI50: 1.64 µM
  TGI: 3.1 µM
OVCAR-5 ovarian
  GI50: 1.73 µM
  TGI: 3.15 µM
NCI-H23 lung
  GI50: 1.96 µM
  TGI: 3.61 µM
SN12C renal
  GI50: 1.74 µM
  TGI: 3.24 µM
SF-268 CNS
  GI50: 1.75 µM
  TGI: 3.45 µM
SNB-75 CNS
  GI50: 1.62 µM
  TGI: 3.07 µM
DU-145 prostate
  GI50: 1.66 µM
  TGI: 3.17 µM
TK-10 renal
  GI50: 1.75 µM
  TGI: 3.22 µM
IGROV1 ovarian
  GI50: 1.92 µM
  TGI: 3.65 µM
MALME-3M melanoma
  GI50: 1.86 µM
  TGI: 3.38 µM
OVCAR-8 ovarian
  GI50: 1.86 µM
  TGI: 3.57 µM
OVCAR-4 ovarian
  GI50: 1.64 µM
  TGI: 3.26 µM
UACC-257 melanoma
  GI50: 1.77 µM
  TGI: 3.24 µM
SF-295 CNS
  GI50: 1.76 µM
  TGI: 3.23 µM
KM12 colon
  GI50: 1.79 µM
  TGI: 3.37 µM
SK-MEL-5 melanoma
  GI50: 1.72 µM
  TGI: 3.16 µM
HOP-92 NSCLC
  GI50: 1.42 µM
  TGI: 2.81 µM
ACHN renal
  GI50: 1.86 µM
  TGI: 3.29 µM
COLO 205 colon
  GI50: 1.75 µM
  TGI: 3.38 µM
HCT-15 colon
  GI50: 1.65 µM
  TGI: 3.24 µM
M14 melanoma
  GI50: 1.81 µM
  TGI: 3.32 µM
SNB-19 CNS
  GI50: 1.87 µM
  TGI: 3.34 µM
PC-3 prostate
  GI50: 1.65 µM
  TGI: 3.1 µM
SK-MEL-2 melanoma
  GI50: 1.89 µM
  TGI: 3.44 µM
NCI-H460 lung
  GI50: 1.87 µM
  TGI: 3.51 µM
SF-539 CNS
  GI50: 1.79 µM
  TGI: 3.26 µM
U251 CNS
  GI50: 1.61 µM
  TGI: 3.01 µM
HS 578T breast
  GI50: 1.65 µM
  TGI: 3.65 µM
CCRF-CEM leukemia
  GI50: 1.71 µM
  TGI: 3.65 µM

## CCCCCCC(=O)c1ccc2ccccc2c1O
MCF7 breast
  TGI: > 100 µM
MOLT-4 leukemia
  TGI: > 100 µM
HT29 colon
  TGI: > 100 µM
EKVX NSCLC
  TGI: > 100 µM
NCI-H226 lung
  TGI: > 100 µM
BT-549 breast
  TGI: > 100 µM
HCC-2998 colon
  TGI: > 100 µM
SK-MEL-28 melanoma
  TGI: > 100 µM
MDA-MB-435
  TGI: > 100 µM
NCI/ADR-RES ovarian
  TGI: > 100 µM
T-47D breast
  TGI: > 100 µM
HCT-116 colon
  TGI: > 100 µM
MDA-MB-231 breast
  TGI: > 100 µM
SR leukemia
  TGI: > 100 µM
UO-31 renal
  TGI: > 100 µM
RPMI-8226 leukemia
  TGI: > 100 µM
UACC-62 melanoma
  TGI: > 100 µM
SW-620 colon
  TGI: > 100 µM
HL-60(TB) leukemia
  TGI: > 100 µM
A498 renal
  TGI: > 100 µM
K-562 leukemia
  TGI: > 100 µM
786-0 renal
  TGI: > 100 µM
CAKI-1 renal
  TGI: 95.4 µM
SK-OV-3 ovarian
  TGI: > 100 µM
RXF 393 renal
  TGI: 74.4 µM
HOP-62 NSCLC
  TGI: > 100 µM
LOX IMVI melanoma
  TGI: > 100 µM
NCI-H23 lung
  TGI: > 100 µM
SF-268 CNS
  TGI: > 100 µM
SNB-75 CNS
  TGI: > 100 µM
DU-145 prostate
  TGI: 92.6 µM
TK-10 renal
  TGI: > 100 µM
IGROV1 ovarian
  TGI: > 100 µM
OVCAR-8 ovarian
  TGI: > 100 µM
OVCAR-4 ovarian
  TGI: > 100 µM
UACC-257 melanoma
  TGI: > 100 µM
SF-295 CNS
  TGI: > 100 µM
KM12 colon
  TGI: > 100 µM
SK-MEL-5 melanoma
  TGI: > 100 µM
HOP-92 NSCLC
  TGI: > 100 µM
ACHN renal
  TGI: > 100 µM
COLO 205 colon
  TGI: > 100 µM
HCT-15 colon
  TGI: > 100 µM
M14 melanoma
  TGI: > 100 µM
SNB-19 CNS
  TGI: > 100 µM
PC-3 prostate
  TGI: > 100 µM
SK-MEL-2 melanoma
  TGI: 67.5 µM
NCI-H460 lung
  TGI: > 100 µM
SF-539 CNS
  TGI: > 100 µM
U251 CNS
  TGI: > 100 µM
HS 578T breast
  TGI: > 100 µM
CCRF-CEM leukemia
  TGI: > 100 µM

## CC(C)(C)C(=O)CC(=O)C(F)(F)C(F)(F)C(F)(F)F.[Ag]
MOLT-4 leukemia
  TGI: 44.8 µM
HT29 colon
  TGI: 36 µM
EKVX NSCLC
  TGI: 55.3 µM
NCI-H226 lung
  TGI: 60.2 µM
SK-MEL-28 melanoma
  TGI: 28.3 µM
MDA-MB-435
  TGI: 33.5 µM
NCI/ADR-RES ovarian
  TGI: 48.6 µM
T-47D breast
  TGI: 55.2 µM
HCT-116 colon
  TGI: 44.1 µM
MDA-MB-231 breast
  TGI: 30.1 µM
SR leukemia
  TGI: 22.4 µM
A549 NSCLC
  TGI: > 100 µM
UO-31 renal
  TGI: 60.4 µM
RPMI-8226 leukemia
  TGI: 44.5 µM
UACC-62 melanoma
  TGI: 32 µM
SW-620 colon
  TGI: 47 µM
HL-60(TB) leukemia
  TGI: 40.8 µM
MDA-N
  TGI: 29 µM
K-562 leukemia
  TGI: 65.8 µM
786-0 renal
  TGI: 33 µM
OVCAR-3 ovarian
  TGI: 27.7 µM
CAKI-1 renal
  TGI: 27.8 µM
SK-OV-3 ovarian
  TGI: 44.5 µM
RXF 393 renal
  TGI: 32.4 µM
HOP-62 NSCLC
  TGI: 50.9 µM
LOX IMVI melanoma
  TGI: 14.5 µM
OVCAR-5 ovarian
  TGI: > 100 µM
NCI-H23 lung
  TGI: 33.1 µM
SN12C renal
  TGI: 27.6 µM
SF-268 CNS
  TGI: 40.3 µM
SNB-75 CNS
  TGI: 34.6 µM
DU-145 prostate
  TGI: > 100 µM
TK-10 renal
  TGI: 32.1 µM
IGROV1 ovarian
  TGI: 26.5 µM
MALME-3M melanoma
  TGI: 45.4 µM
OVCAR-8 ovarian
  TGI: 49.4 µM
OVCAR-4 ovarian
  TGI: 30.5 µM
UACC-257 melanoma
  TGI: 30.1 µM
SF-295 CNS
  TGI: 39.2 µM
KM12 colon
  TGI: 50.8 µM
SK-MEL-5 melanoma
  TGI: 21.3 µM
HOP-92 NSCLC
  TGI: 40.2 µM
ACHN renal
  TGI: 28.7 µM
COLO 205 colon
  TGI: 57.9 µM
HCT-15 colon
  TGI: 31.3 µM
M14 melanoma
  TGI: 31.1 µM
SNB-19 CNS
  TGI: 43.9 µM
PC-3 prostate
  TGI: 26.8 µM
SK-MEL-2 melanoma
  TGI: 33.6 µM
NCI-H460 lung
  TGI: 46.9 µM
SF-539 CNS
  TGI: 57.6 µM
U251 CNS
  TGI: 52.8 µM
HS 578T breast
  TGI: 63.8 µM
CCRF-CEM leukemia
  TGI: 43.8 µM
